Reference: patent publication US20190256509A1, “HISTONE DEMETHYLASE INHIBITORS” (CHRYSALIS, INC., priority 2016, published 2019)

Target: T1, KDM5B enzyme (Homo sapiens, UniProt Q9UGL1)
T1 construct: Reaction Biology Corp (named for the assay, not expressly for the enzyme)
Assay: KDM5B HTRF (TR-FRET) demethylase inhibition assay
Format: biochemical
Settings: 1.2 nM KDM5B, 30 nM Biotin-H3K4Me3 1-21 substrate, 10 point dose-response
Description: Ten point dose-response curves for the compounds of Examples 1-135 were determined using a homogeneous time resolved fluorescence (HTRF) assay (Reaction Biology Corp, Malvern, Pa.). This assay combines fluorescence resonance energy transfer (FRET) with time resolve (TR) measurements (TR-FRET). The KDM5B α-ketoglutarate-dependent demethylase activity is calculated by measuring demethylation of a biotin labeled histone tri-methylated H3K4 substrate using an europium-cryptate (Eu)-labeled antibody donor specific for dimethylated histone H3K4 and a Streptavidin-XL665 acceptor that binds to the biotin group of substrate, and detecting FRET by exciting the reaction mixture at 320 nm and reading dual emissions at 615 nm and 665 nm.
Briefly, compounds disclosed herein were solubilized in DMSO and a series of 10, three-fold serial dilutions were made for each compound in 100% DMSO. The initial starting concentration for the serial dilutions of each compound was 10 μM or 100 μM. Control samples lacking compound, KDM5B enzyme or various reaction components also were prepared and processed in parallel with compound test samples.
An aliquot of each serial dilution of test compound was added to a 384 well plate (Corning Cat #3572) containing 1.2 nM KDM5B enzyme suspended in 50 mM Hepes, pH7.5, 50 mM NaCl, 0.01% Tween 20, 0.1% BSA, and 1% DMSO (final concentrations) in a 10 microliter reaction volume using a LABCYTE ECHO liquid handler. The samples were mixed, subjected to centrifugation and the plate was pre-incubated at room temperature for 15 minutes (min), to which 30 nM Biotin-H3K4Me3 1-21 substrate (Anaspec, Freemont Calif., Cat #64192), 20 μM Fe(II) and 20 μM α-ketoglutarate co-factors, and 100 μM Ascorbate were added to initiate the enzymatic reaction. The reaction mixture was incubated at room temperature for 45 minutes. A 10 μl aliquot of a detection mixture of Eu-labeled anti-histone H3K4Me2 antibody (CisBIO, Bedford Mass., Cat #610AXLB) and Streptavidin-XL665 (CisBIO, Bedford Mass., Cat #610 SAXLB) in 200 mM potassium fluoride and 10 mM EDTA was added and kinetic measurements were read at 5 minute intervals for a period of 30 minutes using an Envision Multiplate Reader (PerkinElmer Model 2102; excitation at 320 nm and emission reads at 615 nm and 665 nm). The IC50 value for each compound was determined from the 665/615 ratio obtained for each 10 point dose-response curve using GraphPad Prism 4 software with a sigmodial dose response.

T1 sequence (Q9UGL1 whole entry): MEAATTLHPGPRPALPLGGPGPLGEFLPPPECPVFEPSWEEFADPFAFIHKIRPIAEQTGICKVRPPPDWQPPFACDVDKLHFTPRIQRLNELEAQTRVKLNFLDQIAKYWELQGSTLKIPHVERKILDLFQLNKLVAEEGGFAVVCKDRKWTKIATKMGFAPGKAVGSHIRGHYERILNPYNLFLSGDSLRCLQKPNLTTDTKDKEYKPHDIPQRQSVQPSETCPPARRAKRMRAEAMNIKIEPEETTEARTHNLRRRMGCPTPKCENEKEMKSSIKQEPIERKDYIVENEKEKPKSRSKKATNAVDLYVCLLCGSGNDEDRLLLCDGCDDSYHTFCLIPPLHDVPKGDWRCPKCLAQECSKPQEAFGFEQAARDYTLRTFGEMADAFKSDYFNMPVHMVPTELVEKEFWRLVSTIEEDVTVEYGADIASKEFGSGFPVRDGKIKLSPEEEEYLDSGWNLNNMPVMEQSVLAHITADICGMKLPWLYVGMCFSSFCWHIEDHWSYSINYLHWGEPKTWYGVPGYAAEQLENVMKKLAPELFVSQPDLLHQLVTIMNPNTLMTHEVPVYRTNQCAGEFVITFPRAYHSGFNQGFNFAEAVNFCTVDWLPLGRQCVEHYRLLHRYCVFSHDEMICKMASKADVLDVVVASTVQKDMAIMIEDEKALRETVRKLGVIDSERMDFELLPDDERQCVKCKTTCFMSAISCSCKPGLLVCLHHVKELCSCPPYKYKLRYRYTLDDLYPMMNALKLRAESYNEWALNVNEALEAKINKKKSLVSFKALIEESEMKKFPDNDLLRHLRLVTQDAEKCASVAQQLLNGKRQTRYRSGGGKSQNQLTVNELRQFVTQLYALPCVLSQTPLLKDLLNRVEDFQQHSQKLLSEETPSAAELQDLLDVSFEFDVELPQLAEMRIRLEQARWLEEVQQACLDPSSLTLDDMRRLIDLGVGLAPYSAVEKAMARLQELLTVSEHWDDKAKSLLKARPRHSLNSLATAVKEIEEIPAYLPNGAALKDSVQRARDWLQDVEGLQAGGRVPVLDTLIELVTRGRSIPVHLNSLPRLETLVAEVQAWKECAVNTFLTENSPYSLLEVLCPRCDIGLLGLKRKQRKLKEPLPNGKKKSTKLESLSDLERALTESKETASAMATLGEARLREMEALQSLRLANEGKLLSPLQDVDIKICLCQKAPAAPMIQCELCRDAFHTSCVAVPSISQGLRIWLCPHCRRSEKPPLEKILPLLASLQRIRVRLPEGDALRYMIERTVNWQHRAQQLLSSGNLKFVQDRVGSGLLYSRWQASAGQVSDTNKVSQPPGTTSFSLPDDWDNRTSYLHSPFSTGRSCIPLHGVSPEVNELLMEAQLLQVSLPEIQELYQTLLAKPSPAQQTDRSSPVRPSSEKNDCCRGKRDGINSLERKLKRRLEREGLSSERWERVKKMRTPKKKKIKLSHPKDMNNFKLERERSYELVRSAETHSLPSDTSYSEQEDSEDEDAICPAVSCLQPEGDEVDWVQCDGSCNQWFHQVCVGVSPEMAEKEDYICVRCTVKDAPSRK

IC50 [nM] | SMILES
500 to 1000 | O=C(O)c1c(NCc2ccccc2OC(F)F)ccc2nccn12 [Example 12]
> 1000 | COc1ccc(CNc2ccc3nccn3c2C(=O)O)cc1 [Example 24]
≤ 500 | CS(=O)(=O)c1ccccc1CNc1ccc2nccn2c1C(=O)O [Example 84]
> 1000 | Cc1ccc(CNc2ccc3nccn3c2C(=O)O)cc1F [Example 49]
≤ 500 | O=C(O)c1c(NCc2ccccc2-n2cccn2)ccc2nccn12 [Example 83]
500 to 1000 | O=C(O)c1c(NCc2ccccc2Cl)ccc2nccn12 [Example 15]
> 1000 | O=C(O)c1c(NCc2cc(Cl)ccc2F)ccc2nccn12 [Example 66]
500 to 1000 | O=C(O)c1c(NCc2ccccc2OC(F)(F)F)ccc2nccn12 [Example 37]
> 1000 | COc1ccc(F)c(CNc2ccc3nccn3c2C(=O)O)c1F [Example 11]
> 1000 | CC(O)c1cc(C(=O)O)n2ccnc2c1 (stereo not shown) [Example 106]
> 1000 | O=C(O)c1c(NCc2ccc(F)c(Br)c2)ccc2nccn12 [Example 90]
> 1000 | COc1c(F)cc(CNc2ccc3nccn3c2C(=O)O)cc1F [Example 46]
≤ 500 | O=C(O)c1c(NCc2cccc(Br)c2)ccc2nccn12 [Example 4]
> 1000 | O=C(O)c1c(NCc2cc(C(F)(F)F)ccc2Cl)ccc2nccn12 [Example 5]
> 1000 | COc1cc(Cl)ccc1COc1ccc2nccn2c1C(=O)O [Example 120]
> 1000 | COc1cc(C)ccc1-c1ccc2ncc(C(=O)O)n2c1 [Example 116]
≤ 500 | COc1cc(Cl)ccc1OCc1cc(C(=O)O)n2ccnc2c1 [Example 129]
500 to 1000 | Cc1ccc(Cl)cc1CNc1ccc2nccn2c1C(=O)O [Example 26]
≤ 500 | COc1ccc(CNc2ccc3nccn3c2C(=O)O)cc1O [Example 51]
> 1000 | O=C(O)c1c(NCc2ccc3c(c2)OCCO3)ccc2nccn12 [Example 80]
> 1000 | O=C(O)c1c(NCc2cccc(F)c2)ccc2nccn12 [Example 50]
500 to 1000 | O=C(O)c1c(NCc2ccc(F)c(C(F)(F)F)c2)ccc2nccn12 [Example 62]

IC50 [nM] | SMILES
≤ 500 | O=C(O)c1c(NCc2ccc(F)cc2Cl)ccc2nccn12 [Example 13]
> 1000 | COc1cc(Cl)ccc1CNc1ccc2ncc(C(=O)O)n2c1 [Example 118]
> 1000 | Cc1cccc(Cl)c1CNc1ccc2nccn2c1C(=O)O [Example 14]
> 1000 | CC(O)c1ccn2c(C(=O)O)cnc2c1 (stereo not shown) [Example 103]
> 1000 | COc1ccc(Cl)cc1CNc1ccc2nc(C)cn2c1C(=O)O [Example 114]
> 1000 | Cc1ccc(CNc2ccc3nccn3c2C(=O)O)c(F)c1F [Example 33]
> 1000 | COc1cc(Cl)ccc1CNc1ccc2nccn2c1-c1nn[nH]n1 [Example 111]
500 to 1000 | O=C(O)c1c(NCc2ccc(F)cc2F)ccc2nccn12 [Example 81]
500 to 1000 | O=C(O)c1c(NCc2cccc(-c3cccnc3)c2)ccc2nccn12 [Example 126]
500 to 1000 | CC(=O)N(C)c1cccc(CNc2ccc3nccn3c2C(=O)O)c1 [Example 100]
> 1000 | COc1cc(Cl)ccc1COc1cc(C(=O)O)n2ccnc2c1 [Example 123]
> 1000 | CC(C)Oc1ccc(CNc2ccc3nccn3c2C(=O)O)cc1 [Example 28]
> 1000 | O=C(O)c1c(NCc2cccc3ccccc23)ccc2nccn12 [Example 31]
> 1000 | Cc1ccc(F)c(CNc2ccc3nccn3c2C(=O)O)c1F [Example 35]
> 1000 | O=C(O)c1cnc2cc(C(O)c3ccccc3)ccn12 (stereo not shown) [Example 102]
> 1000 | O=C(O)c1c(NCc2ccccc2N2CCOCC2)ccc2nccn12 [Example 86]
> 1000 | CCCCc1ccc(CNc2ccc3nccn3c2C(=O)O)cc1 [Example 65]
> 1000 | O=C(O)c1cnc2cc(Oc3ccc4ccncc4c3)ccn12 [Example 105]
> 1000 | O=C(O)c1c(NCc2ccc(OC(F)(F)F)cc2)ccc2nccn12 [Example 95]
> 1000 | O=C(O)c1c(NCc2ccc(Cl)c(F)c2)ccc2nccn12 [Example 58]
≤ 500 | O=C(O)c1c(NCc2ccc(F)c(F)c2)ccc2nccn12 [Example 45]
500 to 1000 | O=C(O)c1c(NCc2ccc(Cl)cc2Cl)ccc2nccn12 [Example 72]

IC50 [nM] | SMILES
> 1000 | Cc1nc2cc(C(O)c3ccccc3)ccn2c1C(=O)O (stereo not shown) [Example 101]
> 1000 | O=C(O)c1c(NCc2cccc3c2CNCC3)ccc2nccn12 [Example 121]
500 to 1000 | O=C(O)c1c(NCc2ccc(Cl)c(C(F)(F)F)c2)ccc2nccn12 [Example 3]
> 1000 | O=C(O)c1cnc2cc(Oc3ccccc3)ccn12 [Example 104]
> 1000 | CC(C)(C)c1ccc(CNc2ccc3nccn3c2C(=O)O)cc1 [Example 25]
> 1000 | COc1ccccc1Oc1cc(C(=O)O)n2ccnc2c1 [Example 108]
> 1000 | O=C(O)c1c(NCc2c(F)cccc2F)ccc2nccn12 [Example 36]
500 to 1000 | COc1c(F)cccc1CNc1ccc2nccn2c1C(=O)O [Example 92]
> 1000 | O=C(O)c1c(NCc2cc(F)cc(C(F)(F)F)c2)ccc2nccn12 [Example 93]
> 1000 | COc1ccc(Cl)cc1CNc1ccc2ncc(C(=O)O)n2c1 [Example 112]
≤ 500 | O=C(O)c1c(NCc2cc(F)ccc2C(F)(F)F)ccc2nccn12 [Example 67]
≤ 500 | COc1cccc(CNc2ccc3nccn3c2C(=O)O)c1 [Example 94]
> 1000 | O=C(O)c1c(NCc2cccc(-c3ccccc3)c2)ccc2nccn12 [Example 52]
> 1000 | O=C(O)c1c(NCc2ccc(OC(F)F)cc2)ccc2nccn12 [Example 22]
> 1000 | O=C(O)c1c(NCc2cccc(C(F)(F)F)c2F)ccc2nccn12 [Example 16]
> 1000 | O=C(O)c1c(NCc2ccc3sccc3c2)ccc2nccn12 [Example 30]
500 to 1000 | O=C(O)c1c(NCc2ccc3occc3c2)ccc2nccn12 [Example 29]
> 1000 | O=C(O)c1c(NCc2cc(F)c(F)c(F)c2)ccc2nccn12 [Example 87]
≤ 500 | O=C(O)c1c(NCc2ccc(F)cc2C(F)(F)F)ccc2nccn12 [Example 60]
≤ 500 | CN1CCN(c2ccccc2CNc2ccc3nccn3c2C(=O)O)CC1 [Example 32]
500 to 1000 | Cc1cc(F)ccc1CNc1ccc2nccn2c1C(=O)O [Example 61]
> 1000 | Cc1c(F)cccc1CNc1ccc2nccn2c1C(=O)O [Example 20]

IC50 [nM] | SMILES
> 1000 | Cc1ccc(F)c(CNc2ccc3nccn3c2C(=O)O)c1Cl [Example 38]
> 1000 | O=C(O)c1c(NCc2ccc(-c3cccs3)cc2)ccc2nccn12 [Example 53]
> 1000 | O=C(O)c1c(NCc2ccc(Cl)cc2F)ccc2nccn12 [Example 56]
≤ 500 | Cn1nccc1-c1cccc(CNc2ccc3nccn3c2C(=O)O)c1 [Example 127]
> 1000 | O=C(O)c1c(NCc2cc(F)cc(F)c2)ccc2nccn12 [Example 73]
> 1000 | O=C(O)c1c(NCc2ccccc2Cl)ccc2nccn12 [Example 91]
> 1000 | O=C(O)c1c(NCc2c(Cl)cccc2Cl)ccc2nccn12 [Example 10]
> 1000 | COc1cc(Cl)ccc1CNc1cc(C(=O)O)n2ccnc2c1 [Example 122]
> 1000 | COc1cc(CNc2ccc3nccn3c2C(=O)O)ccc1O [Example 75]
500 to 1000 | O=C(O)c1c(NCc2cc(F)ccc2F)ccc2nccn12 [Example 82]
> 1000 | O=C(O)c1c(NCc2cccc(F)c2F)ccc2nccn12 [Example 79]
≤ 500 | O=C(O)c1c(NCc2ccc(-n3ccnc3)cc2)ccc2nccn12 [Example 78]
500 to 1000 | O=C(O)c1c(NCc2ccccc2C(F)(F)F)ccc2nccn12 [Example 2]
> 1000 | O=C(O)c1c(NCc2ccc(Oc3ccc(F)cc3)cc2)ccc2nccn12 [Example 54]
500 to 1000 | Cc1cc(Cl)ccc1CNc1ccc2nccn2c1C(=O)O [Example 57]
> 1000 | O=C(O)c1c(NCc2cccc(Cl)c2Cl)ccc2nccn12 [Example 9]
> 1000 | O=C(O)c1c(NCc2cc(C(F)(F)F)cc(C(F)(F)F)c2)ccc2nccn12 [Example 6]
> 1000 | O=C(O)c1c(NCc2ccccc2F)ccc2nccn12 [Example 85]
> 1000 | COc1ccc(Cl)cc1CNc1cc(C(=O)O)n2ccnc2c1 [Example 117]
